Experimental findings from ChEMBL document CHEMBL1127417, “Multisubstrate inhibition of 4-hydroxybenzoate 3-monooxygenase” (J Med Chem, 1994) are described below.

Structures are written as SMILES.

Assay [1] has as its target T1, p-hydroxybenzoate hydroxylase (Pseudomonas fluorescens, UniProt P00438). The assay can be described thus: Binding affinity against p-hydroxybenzoate hydroxylase (PHBH) from Pseudomonas fluorescence competing with NADPH.
The target of assay [2] is T1, p-hydroxybenzoate hydroxylase. The assay can be described thus: Binding affinity against p-hydroxybenzoate hydroxylase (PHBH) from Pseudomonas fluorescence competing with p-hydroxy benzoic acid.
Assay [3] has the same target. Put plainly: Inhibitory concentration against p-hydroxybenzoate hydroxylase (PHBH) from Pseudomonas fluorescence.

T1 sequence (P00438 whole entry): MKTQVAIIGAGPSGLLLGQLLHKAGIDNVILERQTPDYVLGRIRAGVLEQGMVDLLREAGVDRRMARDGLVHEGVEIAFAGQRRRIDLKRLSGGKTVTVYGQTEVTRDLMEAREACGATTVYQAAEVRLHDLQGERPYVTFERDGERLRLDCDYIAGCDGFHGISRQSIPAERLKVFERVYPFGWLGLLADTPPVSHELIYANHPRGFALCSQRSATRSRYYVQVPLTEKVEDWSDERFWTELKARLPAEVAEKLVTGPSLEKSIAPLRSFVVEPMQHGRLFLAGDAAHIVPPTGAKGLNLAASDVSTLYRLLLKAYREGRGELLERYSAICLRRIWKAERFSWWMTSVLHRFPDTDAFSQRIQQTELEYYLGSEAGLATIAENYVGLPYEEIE

With `O=C(O)c1ccc(O)cc1OCc1ccccc1`, the Ki in assay [1] is 69 nM; in assay [2], 59 nM.

In assay [3], `O=C(O)c1ccc(O)c(OCc2ccccc2)c1` came in with an IC50 of 100000 nM.
